{"source": "patent US20160184338A1", "about": "“Bioactive Alkaloid Compositions and Their Medical Uses” (Asiros A/S, priority 2013, published 2016)", "key": {"[1]": {"tested_on": "BKS Cg-Lepr db/Lepr db mice", "assay": "Hypoglycemic effect in NIDDM mice", "type": "in vivo, mouse", "details": "oral daily 14 days (RAP4 2000 mg/kg, metformin 300 mg/kg), day 14 post dosing", "method": "Male non-insulin dependent diabetic mellitus (NIDDM) mice (BKS Cg-Lepr db/Lepr db) weighing 50+/−5 g were used at age of 12-13 weeks. A daily oral dose of 2000 mg/kg of RAP4 corresponding to corresponding to 112 μg/kg of Ribetril A and 492 μg/kg total Ribetrils as well as 240 μg/kg total Glucoindols was administered orally at a dosing volume of 10 mL/kg to 12 animals for a total of 14 consecutive days. The positive control of metformin (300 mg/kg) and vehicle (2% Tween 80) were each administered orally at a dosing volume of 10 mL/kg to groups of 6 animals once daily for a total of 14 consecutive days. Serum glucose levels were measured by means of an automated analyzer (TBA-120FR, Toshiba) and serum insulin by ELISA at zero min (pre-treatment) on Day 1, and at 90 min after the daily dosing (post-treatment) on Day 7 and Day 14."}, "[2]": {"tested_on": "hyperlipidemic guinea pigs", "assay": "Hypocholesterolemic effect in guinea pigs on high fat diet", "type": "in vivo, guinea pig", "details": "10 mg/kg oral daily, 28 days", "method": "Male Dunkin-Hartley guinea pigs weighing 300+/−30 g were acclimated one week before the in-life phase of the experiment. The study diet (Research Diets Inc, New Brunswick, N.J., USA) contained 15% corn oil and 0.25% cholesterol. A daily oral dose of 2000 mg/kg of RAP2 corresponding 9 μg/kg of Ribetril A and 82 μg/kg total Ribetrils as well as 632 μg/kg total Glucoindols was administered orally at a dosing volume of 10 mL/kg. A daily oral dose of 2000 mg/kg of RAP4 corresponding to 112 μg/kg of Ribetril A and 492 μg/kg total Ribetrils as well as 240 μg/kg total Glucoindols was administered orally at a dosing volume of 10 mL/kg. The positive control atorvastatin (10 mg/kg) and vehicle (0.5% methylcellulose) were each administered orally at a dosing volume of 10 mL/kg. […]\nAfter fasting overnight, blood samples were obtained from the retro-orbital sinus of each animal 5 min before initial test substance and/or vehicle administration (pre-treatment) and 24 hours after dosing on days 14 and 28 (post-treatment). The serum total cholesterol (TC), low density lipoprotein cholesterol (LDL-C), high density lipoprotein cholesterol (HDL-C) and triglycerides (TG) were determined by an enzymatic method (Wako total cholesterol, LDL-C, HDL-C & TG diagnostic kit and Toshiba Automatic Analyzer Model TAB-120FR)."}, "[3]": {"target": "T1, PDE4A1A (Homo sapiens, UniProt P27815)", "T1 construct": "purchased BSP Bioscience 60340", "T1 sequence (P27815 1-647 isoform P27815-4)": "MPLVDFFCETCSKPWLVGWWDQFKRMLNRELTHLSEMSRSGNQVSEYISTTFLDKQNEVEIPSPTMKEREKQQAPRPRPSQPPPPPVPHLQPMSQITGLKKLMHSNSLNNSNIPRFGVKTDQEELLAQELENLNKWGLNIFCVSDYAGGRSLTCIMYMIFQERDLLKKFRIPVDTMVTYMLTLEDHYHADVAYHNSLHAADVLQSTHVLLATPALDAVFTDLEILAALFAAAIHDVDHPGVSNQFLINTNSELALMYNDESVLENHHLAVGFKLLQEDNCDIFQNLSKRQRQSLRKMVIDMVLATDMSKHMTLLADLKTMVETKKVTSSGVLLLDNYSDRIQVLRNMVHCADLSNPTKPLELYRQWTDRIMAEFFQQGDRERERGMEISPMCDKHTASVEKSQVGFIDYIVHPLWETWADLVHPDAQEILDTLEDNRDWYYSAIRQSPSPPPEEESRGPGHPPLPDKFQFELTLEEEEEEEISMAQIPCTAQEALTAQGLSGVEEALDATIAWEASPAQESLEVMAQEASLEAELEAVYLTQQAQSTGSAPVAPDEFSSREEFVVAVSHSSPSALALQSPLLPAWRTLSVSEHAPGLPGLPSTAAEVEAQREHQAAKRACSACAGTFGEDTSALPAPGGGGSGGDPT", "assay": "PDE4A1A Assay Kit, fluorescence polarization", "type": "biochemical", "details": "PDE4", "method": "Inhibition of PDE4 blocks hydrolysis of cAMP, thereby increasing levels of cAMP. The PDE4A1A Assay Kit is designed for identification of PDE4A1A inhibitors using fluorescence polarization. The assay is based on the binding of fluorescent AMP generated by PDE4A1A to the binding agent.\nThe assay was performed according to the protocol of the PDE4A1A assay provided by BSP Bioscience [BSP Bioscience, Data sheet PDE4A1A Assay Kit, Catalog #60340].\n(§1) A fluorescence plate reader (Appliskan, Thermo Scientific) was used to detect fluorescence emission signals according to the following parameters:\n(§2) Selected alkaloids of the invention prepared in example 1 were tested in 5 times dilutions to establish the 50% inhibitory concentration (IC-50)."}, "[4]": {"target": "T2, IkappaB kinase β (IKK-β) (Homo sapiens, UniProt O14920)", "T2 construct": "purchased Invitrogen", "T2 sequence (O14920 1-756)": "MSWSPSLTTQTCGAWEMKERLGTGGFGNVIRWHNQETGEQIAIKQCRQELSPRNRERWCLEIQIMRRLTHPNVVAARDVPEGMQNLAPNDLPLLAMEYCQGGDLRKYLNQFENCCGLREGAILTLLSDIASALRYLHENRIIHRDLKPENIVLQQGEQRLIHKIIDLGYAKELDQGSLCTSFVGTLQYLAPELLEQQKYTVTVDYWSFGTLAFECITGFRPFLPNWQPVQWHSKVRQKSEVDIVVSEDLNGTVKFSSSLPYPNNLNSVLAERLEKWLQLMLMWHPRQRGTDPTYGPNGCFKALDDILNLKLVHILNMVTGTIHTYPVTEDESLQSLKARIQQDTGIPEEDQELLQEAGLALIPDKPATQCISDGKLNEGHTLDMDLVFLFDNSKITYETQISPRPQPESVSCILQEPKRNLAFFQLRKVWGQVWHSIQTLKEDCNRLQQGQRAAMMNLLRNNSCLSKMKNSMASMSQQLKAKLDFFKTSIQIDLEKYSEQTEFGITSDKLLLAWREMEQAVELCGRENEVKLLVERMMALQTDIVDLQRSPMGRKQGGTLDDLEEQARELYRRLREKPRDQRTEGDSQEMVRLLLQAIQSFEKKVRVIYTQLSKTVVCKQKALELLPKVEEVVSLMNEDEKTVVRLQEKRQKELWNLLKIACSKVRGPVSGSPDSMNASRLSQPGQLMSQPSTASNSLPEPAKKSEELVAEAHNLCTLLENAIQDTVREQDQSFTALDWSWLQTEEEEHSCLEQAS", "assay": "IKK-β inhibition, Z'-LYTE Kinase Assay Kit-Ser/Thr 5 Peptide (FRET)", "type": "biochemical", "method": "IKK-β phosphorylates the inhibitory IκB protein associated with NE-κB. Phosphorylation results in the dissociation of IκB from NE-κB, allowing NE-κB to migrate into the cell nucleus where it can activate the transcription of at least 150 genes. The Z9-LYTE™ Kinase Assay Kit-Ser/Thr 5 Peptide is designed to screen for potential IKK-β inhibitory effect using fluorescence resonance energy transfer (FRET) between coumarin and fluorescein for detection by a fluorometer.\nThe assay was performed according to Z9-LYTE™ KINASE ASSAY KIT-SER/THR 5 PEPTIDE protocol provided by Invitrogen [Invitrogen, Z′-LYTE™ Kinase Assay Kit-Ser/Thr 5 Peptide Protocol, O-062187-r1 US 0405]. Based on the IKK-β certificate of the kit, a kinase concentration of 500 ng/ml was chosen. Km for ATP 9.4 μM was chosen according to an optimization for the LanthaScreen™ kinase assay [http://tools.invitrogen.com/content/sfs/manuals/IKBKB_%28IKK_beta%29_LanthaScreen_Activity.pdf].\nas §1, §2"}, "[5]": {"target": "T3, PDE5A (Homo sapiens, UniProt O76074)", "T3 construct": "purchased BSP Bioscience 60350", "assay": "PDE5A Assay Kit, fluorescence polarization", "type": "biochemical", "details": "PDE5", "method": "Inhibition of PDE5 blocks hydrolysis of cGMP, thereby increasing levels of cGMP. The PDE5A Assay Kit is designed for identification of PDE5A inhibitors using fluorescence polarization. The assay is based on the binding of a fluorescent nucleotide monophosphate generated by PDE5A to the binding agent.\nThe assay was performed according to the protocol of the PDE5A assay provided by BSP Bioscience [BSP Bioscience, Data sheet PDE5A Assay Kit, Catalog #60350].\nas §1\nTest Compounds • Selected alkaloids of the invention prepared in example 1 were tested in 5 times dilutions to establish the 50% inhibitory concentration (IC-50)."}}, "note": "Entries after “also recorded” stand apart in the source; their conditions may differ."}
{"smiles": "CN(C)C(=N)N=C(N)N", "note": "[metformin]", "values": [{"measurement": "serum glucose levels relative to vehicle control", "setting": "[1]", "result": "significant decrease"}]}
{"smiles": "CC(C)c1c(C(=O)Nc2ccccc2)c(-c2ccccc2)c(-c2ccc(F)cc2)n1CC[C@@H](O)C[C@@H](O)CC(=O)O", "note": "[atorvastatin]", "values": [{"measurement": "effect on triglycerides", "setting": "[2]", "result": "did not significantly reduce triglycerides; also recorded: did not display a significant decreasing effect on triglyceride levels"}]}
{"smiles": "N#C/C(=C\\CO[C@@H]1O[C@H](CO)[C@@H](O)[C@H](O)[C@H]1O)COC(=O)/C=C/c1ccc(O)c(O)c1", "note": "[Ribetril A, (E)-(E)-2-cyano-4-(((2R,3R,4S,5S,6R)-3,4,5-trihydroxy-6-(hydroxymethyl)tetrahydro-2H-pyran-2-yl)oxy)but-2-en-1-yl 3-(3,4-dihydroxyphenyl)acrylate]", "values": [{"measurement": "times lower IC-50 as compared to Ribetril B", "setting": "[3]", "result": 5, "unit": "times"}, {"measurement": "times lower IC-50 as compared to Ribetril C", "setting": "[3]", "result": 20, "unit": "times"}, {"measurement": "times lower IC-50 as compared to Ribetril B", "setting": "[4]", "result": 48, "unit": "times"}, {"measurement": "times lower IC-50 as compared to Ribetril C", "setting": "[4]", "result": 118, "unit": "times"}, {"measurement": "times lower IC-50 as compared to Ribetril B", "setting": "[5]", "result": 3, "unit": "times"}, {"measurement": "times lower IC-50 as compared to Ribetril C", "setting": "[5]", "result": 8, "unit": "times"}]}
